Results taken from PubChem BioAssay (NCI).
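Results reflect a 48-hour exposure of cells in 96-well plates to compound at five concentrations. GI50 = concentration required for 50% inhibition of growth. Definition used: TGI = concentration required for complete inhibition of growth.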

Legend:
Assay in all cases: NCI tumour cell line growth inhibition, 48 h
[1] = test system: HT29 colon
[2] = test system: LOX IMVI melanoma
[3] = test system: OVCAR-3 ovarian
[4] = test system: NCI-H522 lung
[5] = test system: EKVX NSCLC
[6] = test system: SK-OV-3 ovarian
[7] = test system: SNB-75 CNS
[8] = test system: A549 NSCLC
[9] = test system: RPMI-8226 leukemia
[10] = test system: A498 renal
[11] = test system: ACHN renal
[12] = test system: SW-620 colon
[13] = test system: KM12 colon
[14] = test system: K-562 leukemia
[15] = test system: 786-0 renal
[16] = test system: BT-549 breast
[17] = test system: TK-10 renal
[18] = test system: UACC-62 melanoma
[19] = test system: PC-3 prostate
[20] = test system: SF-268 CNS
[21] = test system: UACC-257 melanoma
[22] = test system: CCRF-CEM leukemia
[23] = test system: U251 CNS
[24] = test system: NCI-H226 lung
[25] = test system: SK-MEL-5 melanoma
[26] = test system: UO-31 renal
[27] = test system: HL-60(TB) leukemia
[28] = test system: T-47D breast
[29] = test system: OVCAR-5 ovarian
[30] = test system: SN12C renal
[31] = test system: HS 578T breast
[32] = test system: M14 melanoma
[33] = test system: IGROV1 ovarian
[34] = test system: MOLT-4 leukemia
[35] = test system: HOP-92 NSCLC
[36] = test system: HCC-2998 colon
[37] = test system: HCT-116 colon
[38] = test system: CAKI-1 renal
[39] = test system: DU-145 prostate
[40] = test system: SK-MEL-2 melanoma
[41] = test system: NCI/ADR-RES ovarian
[42] = test system: HOP-62 NSCLC
[43] = test system: SF-539 CNS
[44] = test system: SK-MEL-28 melanoma
[45] = test system: COLO 205 colon
[46] = test system: NCI-H23 lung
[47] = test system: OVCAR-8 ovarian
[48] = test system: MCF7 breast
[49] = test system: MDA-MB-435
[50] = test system: MDA-MB-231 breast
[51] = test system: MALME-3M melanoma
[52] = test system: RXF 393 renal
[53] = test system: SR leukemia
[54] = test system: HCT-15 colon
[55] = test system: SNB-19 CNS
[56] = test system: NCI-H460 lung

Structure (SMILES): O=C(C(Br)Br)C(Br)C(Br)c1ccccc1 (configuration not stated)
- GI50 [1]: 2.5 µM
- TGI [1]: 5.39 µM
- GI50 [2]: 1.49 µM
- TGI [2]: 3.61 µM
- GI50 [3]: 2.72 µM
- TGI [3]: 6.44 µM
- GI50 [4]: 1.81 µM
- TGI [4]: 3.48 µM
- GI50 [5]: 14.5 µM
- TGI [5]: 43.9 µM
- GI50 [6]: 17.2 µM
- TGI [6]: 31.1 µM
- GI50 [7]: 19.9 µM
- TGI [7]: 53.4 µM
- GI50 [8]: 20.4 µM
- TGI [8]: 52.4 µM
- GI50 [9]: 1.54 µM
- TGI [9]: 4.36 µM
- GI50 [10]: 19.7 µM
- TGI [10]: 35 µM
- GI50 [11]: 1.68 µM
- TGI [11]: 3.18 µM
- GI50 [12]: 2.03 µM
- TGI [12]: 4.19 µM
- GI50 [13]: 14.2 µM
- TGI [13]: 28.5 µM
- GI50 [14]: 1.89 µM
- TGI [14]: 5.37 µM
- GI50 [15]: 3.47 µM
- TGI [15]: 11 µM
- GI50 [16]: 3.97 µM
- TGI [16]: 14.1 µM
- GI50 [17]: 2.47 µM
- TGI [17]: 4.78 µM
- GI50 [18]: 3.25 µM
- TGI [18]: 11.5 µM
- GI50 [19]: 3.67 µM
- TGI [19]: 15.2 µM
- GI50 [20]: 4.04 µM
- TGI [20]: 16.9 µM
- GI50 [21]: 2.39 µM
- TGI [21]: 7.24 µM
- GI50 [22]: 0.536 µM
- TGI [22]: 2.66 µM
- GI50 [23]: 2.96 µM
- TGI [23]: 10.8 µM
- GI50 [24]: 3.31 µM
- TGI [24]: 15.4 µM
- GI50 [25]: 10.6 µM
- TGI [25]: 22.7 µM
- GI50 [26]: 2.5 µM
- TGI [26]: 7.86 µM
- GI50 [27]: 5.82 µM
- TGI [27]: 25.7 µM
- GI50 [28]: 2.75 µM
- TGI [28]: 9.69 µM
- GI50 [29]: 6.6 µM
- TGI [29]: 22.2 µM
- GI50 [30]: 12.7 µM
- TGI [30]: 33.2 µM
- GI50 [31]: 43.5 µM
- TGI [31]: > 100 µM
- GI50 [32]: 2.5 µM
- TGI [32]: 6.33 µM
- GI50 [33]: 3.56 µM
- TGI [33]: 11.5 µM
- GI50 [34]: 1.82 µM
- TGI [34]: 4.76 µM
- GI50 [35]: 6.21 µM
- TGI [35]: 19.8 µM
- GI50 [36]: 16.2 µM
- TGI [36]: 33 µM
- GI50 [37]: 1.83 µM
- TGI [37]: 3.42 µM
- GI50 [38]: 1.78 µM
- TGI [38]: 3.37 µM
- GI50 [39]: 11.4 µM
- TGI [39]: 23.6 µM
- GI50 [40]: 13.7 µM
- TGI [40]: 35.7 µM
- GI50 [41]: 5.23 µM
- TGI [41]: 72.4 µM
- GI50 [42]: 2.74 µM
- TGI [42]: 8.1 µM
- GI50 [43]: 2.43 µM
- TGI [43]: 7.84 µM
- GI50 [44]: 6.7 µM
- TGI [44]: 22.1 µM
- GI50 [45]: 1.65 µM
- TGI [45]: 3.59 µM
- GI50 [46]: 5.16 µM
- TGI [46]: 27.5 µM
- GI50 [47]: 3.16 µM
- TGI [47]: > 100 µM
- GI50 [48]: 3.58 µM
- TGI [48]: 13.4 µM
- GI50 [49]: 2.67 µM
- TGI [49]: 8.21 µM
- GI50 [50]: 5.4 µM
- TGI [50]: 20.6 µM
- GI50 [51]: 3.11 µM
- TGI [51]: 8.65 µM
- GI50 [52]: 1.7 µM
- TGI [52]: 3.45 µM
- GI50 [53]: 1.61 µM
- TGI [53]: 3.68 µM
- GI50 [54]: 1.96 µM
- TGI [54]: 4.38 µM
- GI50 [55]: 17.4 µM
- TGI [55]: 35.2 µM
- GI50 [56]: 24.5 µM
- TGI [56]: 66.4 µM
